From ChEMBL document CHEMBL1149723, “Structures of four new triterpenoid oligoglycosides: DS-penaustrosides A, B, C, and D from the sea cucumber Pentacta australis” (J Nat Prod, 1992)
In brackets after ≈: the same amount, converted by molar mass.

What was measured:
L1210 = assay: Cytotoxicity against mouse L1210 cells; type: functional, cell-based
KB = assay: Cytotoxicity against human KB cells; type: functional, cell-based

CO[C@@H]1[C@@H](O)[C@H](O[C@@H]2[C@@H](O)[C@H](O[C@H]3[C@H](O)[C@@H](O[C@@H]4OC[C@@H](O)[C@H](O)[C@H]4O)[C@H](O[C@H]4[C@H](O[C@H]5CC[C@]6(C)C7=CC[C@]8(C)[C@@H]([C@@](C)(O)CCCC(C)C)CC[C@@]8(C)[C@@H]7CC[C@H]6C5(C)C)OC[C@@H](O)[C@@H]4O)O[C@@H]3C)O[C@H](CO)[C@H]2O)O[C@H](CO)[C@H]1O [DS-PENAUSTROSIDE A]
IC50 (L1210): 0.12 µg/mL (≈ 0.101 µM)
IC50 (KB): 0.62 µg/mL (≈ 0.52 µM)

C=C(C)CCC[C@](C)(O)[C@H]1CC[C@@]2(C)[C@@H]3CC[C@H]4C(C)(C)[C@@H](O[C@@H]5OC[C@@H](O)[C@H](O)[C@H]5O[C@@H]5O[C@H](C)[C@@H](O[C@@H]6O[C@H](CO)[C@@H](O)[C@H](O[C@@H]7O[C@H](CO)[C@@H](O)[C@H](OC)[C@H]7O)[C@H]6O)[C@H](O)[C@H]5O[C@@H]5OC[C@@H](O)[C@H](O)[C@H]5O)CC[C@]4(C)C3=CC[C@]12C [DS-PENAUSTROSIDE B]
IC50 (L1210): 2.1 µg/mL (≈ 1.76 µM)
IC50 (KB): 4.6 µg/mL (≈ 3.86 µM)
